IC50 data for 36 compounds are collected here from US6881741B2 (ViroChem Pharma Inc., priority 2001, dated 2005).

This assay has as its target recombinant HCV NS5B (HCV RNA-dependent RNA polymerase) (Hepatitis C virus genotype 1b, UniProt P26663). Put plainly: biochemical.
Where [1] appears, read: related polymerase activity (Example 27 list), read-out: IC50.
Where [2] appears, read: HCV polymerase activity, list of compounds of Example 27, read-out: IC50 (polymerase activity).

Where two headings read alike, the source gives them in different places. Bounds are passed on as bounds.

recombinant HCV NS5B (HCV RNA-dependent RNA polymerase), sequence (P26663 2420-3010 limits assumed): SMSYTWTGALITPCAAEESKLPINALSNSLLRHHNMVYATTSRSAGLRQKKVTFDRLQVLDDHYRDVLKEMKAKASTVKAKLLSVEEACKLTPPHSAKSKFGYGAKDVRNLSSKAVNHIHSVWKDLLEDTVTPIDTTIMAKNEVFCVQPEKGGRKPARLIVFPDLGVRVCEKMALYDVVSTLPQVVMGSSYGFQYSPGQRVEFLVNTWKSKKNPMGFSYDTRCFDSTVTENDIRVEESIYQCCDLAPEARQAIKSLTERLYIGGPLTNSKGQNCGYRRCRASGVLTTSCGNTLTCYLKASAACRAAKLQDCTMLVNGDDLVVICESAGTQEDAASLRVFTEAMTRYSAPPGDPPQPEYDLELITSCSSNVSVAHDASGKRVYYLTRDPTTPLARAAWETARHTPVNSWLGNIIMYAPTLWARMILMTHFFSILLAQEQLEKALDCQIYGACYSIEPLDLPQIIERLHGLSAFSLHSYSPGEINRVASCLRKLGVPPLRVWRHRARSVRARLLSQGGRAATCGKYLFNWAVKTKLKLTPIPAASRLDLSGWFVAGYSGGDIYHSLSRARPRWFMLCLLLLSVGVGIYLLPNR

In general, IC50 refers to the point on the concentration scale where inhibition reaches its midpoint. On to `COc1cccc(CN(C(=O)c2ccc(C)cc2)c2cc(-c3ccccc3)sc2C(=O)O)c1` [Compound 344, 3-[(3-METHOXY-BENZYL)-(4-METHYL- BENZOYL)-AMINO]-5-PHENYL- THIOPHENE-2-CARBOXYLIC ACID], for which the IC50 under setting [1] is less than 5 µM.

Consider `CC1CCC(C(=O)N(c2cc(C3CCN(C)CC3)sc2C(=O)O)C(C)C)CC1` (stereo not drawn) [Compound 536, 3-[ISOPROPYL-(4-METHYL- CYCLOHEXANECARBONYL)-AMINO]-5-(1- METHYL-PIPERIDIN-4-YL)-THIOPHENE-2- CARBOXYLIC ACID], for which, under setting [2], the IC50 was less than 5 µM.

With `Cc1ccc(C(=O)N(C)c2cc(-c3ccc(C#N)cc3)sc2C(=O)O)cc1` [Compound 193, 5-(4-CYANO-PHENYL)-3-[METHYL-(4-METHYL-BENZOYL)-AMINO]-THIOPHENE-2-CARBOXYLIC ACID], the IC50 under setting [1] was in the range of 5 to 20 µM.

Turning to `Cc1cc(S(=O)(=O)N(Cc2cccc(-c3cc4ccccc4o3)c2)c2cc(-c3ccccc3)sc2C(=O)O)c(C)cc1Cl` [Compound 2, 3-[(3-BENZOFURAN-2-YL-BENZYL)-(4-CHLORO-2,5-DIMETHYL-BENZENESULFONYL)-AMINO]-5-PHENYL-THIOPHENE-2-CARBOXYLIC ACID], under setting [1], the IC50 lay in the range of 5 to 20 µM.

As to `C=CCN(C(=O)Cc1ccc(C(F)(F)F)cc1)c1cc(-c2ccccc2)sc1C(=O)O` [Compound 352, 3-{ALLYL-[2-(4-TRIFLUOROMETHYL- PHENYL)-ACETYL]-AMINO}-5-PHENYL- THIOPHENE-2-CARBOXYLIC ACID], the IC50 under setting [1] is greater than 20 µM.

For `Cc1ccc(C(=O)N(c2cc(-c3ccccc3)sc2C(=O)O)C(C)C)c(C#N)c1` [Compound 431, 3-[(2-CYANO-4-METHYL-BENZOYL)- ISOPROPYL-AMINO]-5-PHENYL- THIOPHENE-2-CARBOXYLIC ACID], the IC50 under setting [2] was in the range of 5 to 20 µM.

Turning to `CC(C)N(C(=O)c1ccc(Cl)cc1N)c1cc(-c2ccccc2)sc1C(=O)O` [Compound 328, 3-[(2-AMINO-4-CHLORO-BENZOYL)- ISOPROPYL-AMINO]-5-PHENYL- THIOPHENE-2-CARBOXYLIC ACID], under setting [1], the IC50 was less than 5 µM.

As for `O=C(O)c1sc(-c2ccccc2)cc1N(CC1CCN(C(=O)OCc2ccccc2)CC1)C(=O)c1ccc(Cl)cc1Cl` [Compound 508, 4-{[(2-CARBOXY-5-PHENYL-THIOPHEN-3- YL)-(2,4-DICHLORO-BENZOYL)-AMINO]- METHYL}-PIPERIDINE-1-CARBOXYLIC ACID BENZYL ESTER], the IC50 under setting [2] is less than 5 µM.

On to `Cc1cc(C)c(S(=O)(=O)Nc2cc(-c3ccccc3)sc2C(=O)O)c(C)c1` [Compound 298, 5-PHENYL-3-(2,4,6-TRIMETHYL- BENZENESULFONYLAMINO)- THIOPHENE-2-CARBOXYLIC ACID], for which the IC50 under setting [1] is less than 5 µM.

As for `CC(C)=CCN(C(=O)c1ccc(Cl)cc1Cl)c1cc(-c2ccccc2)sc1C(=O)O` [Compound 244, 3-[(2,4-DICHLORO-BENZOYL)-(3-METHYL-BUT-2-ENYL)-AMINO]-5-PHENYL-THIOPHENE-2-CARBOXYLIC ACID], the IC50 under setting [1] was less than 5 µM.

As for `Cc1ccc(C(=O)N(C)c2cc(-c3ccc(F)cc3)sc2C(=O)O)cc1` [Compound 197, 5-(4-FLUORO-PHENYL)-3-[METHYL-(4-METHYL-BENZOYL)-AMINO]-THIOPHENE-2-CARBOXYLIC ACID], under setting [1], the IC50 is less than 5 µM.

On to `COC(=O)c1cc(S(=O)(=O)Nc2cc(-c3ccccc3)sc2C(=O)O)oc1C` [Compound 154, 5-(2-CARBOXY-5-PHENYL-THIOPHEN-3-YLSULFAMOYL)-2-METHYL-FURAN-3-CARBOXYLIC ACID METHYL ESTER], for which, under setting [1], the IC50 is less than 5 µM.

Turning to `Cc1ccc(C(=O)N(c2cc(-c3ccccc3)sc2C(=O)O)C(C)C)c(Br)c1` [Compound 309, 3-[(2-BROMO-4-METHYL-BENZOYL)- ISOPROPYL-AMINO]-5-PHENYL- THIOPHENE-2-CARBOXYLIC ACID], under setting [1], the IC50 is less than 5 µM.

For `O=C(O)c1sc(-c2ccccc2)cc1N(Cc1ccc(C(F)(F)F)cc1)C(=O)C1CCCCC1` [Compound 436, 3-[CYCLOHEXANECARBONYL-(4- TRIFLUOROMETHYL-BENZYL)-AMINO]-5- PHENYL-THIOPHENE-2-CARBOXYLIC ACID], under setting [2], the IC50 is less than 5 µM.

On to `O=C(O)c1sc(-c2ccccc2)cc1N(Cc1ccc(C(F)(F)F)cc1)C(=O)CC1CCCC1` [Compound 416, 3-[(2-CYCLOPENTYL-ACETYL)-(4- TRIFLUOROMETHYL-BENZYL)-AMINO]-5- PHENYL-THIOPHENE-2-CARBOXYLIC ACID], for which the IC50 under setting [2] fell in the range of 5 to 20 µM.

As to `Cc1ccc(C(=O)N(Cc2ccc([N+](=O)[O-])cc2)c2cc(-c3ccccc3)sc2C(=O)O)cc1` [Compound 342, 3-[(4-METHYL-BENZOYL)-(4-NITRO- BENZYL)-AMINO]-5-PHENYL-THIOPHENE- 2-CARBOXYLIC ACID], under setting [1], the IC50 was less than 5 µM.

With `CC(C)N(C(=O)C1CCCCC1)c1cc(-c2ccccc2)sc1C(=O)O` [Compound 362, 3-(CYLCOHEXANECARBONYL- ISOPROPYL-AMINO)-5-PHENYL- THIOPHENE-2-CARBOXYLIC ACID], under setting [1], the IC50 lay within 5 to 20 µM.

As to `O=C(Nc1cc(-c2ccccc2)sc1C(=O)O)c1ccc(F)cc1F` [Compound 77, 3-(2,4-DIFLUORO-BENZOYLAMINO)-5-PHENYL-THIOPHENE-2-CARBOXYLIC ACID], under setting [1], the IC50 was greater than 20 µM.

As to `O=C(O)c1sc(-c2ccccc2)cc1N(Cc1ccc([N+](=O)[O-])cc1)C(=O)CC1CCCC1` [Compound 443, 3-[(2-CYCLOPENTYL-ACETYL)-(4-NITRO- BENZYL)-AMINO]-5-PHENYL-THIOPHENE- 2-CARBOXYLIC ACID], under setting [2], the IC50 was less than 5 µM.

Regarding `COc1ccc(-c2cc(N(C)C(=O)c3ccc(C)cc3)c(C(=O)O)s2)cc1` [Compound 198, 5-(4-METHOXY-PHENYL)-3-[METHYL-(4-METHYL-BENZOYL)-AMINO]-THIOPHENE-2-CARBOXYLIC ACID], the IC50 under setting [1] is 5 to 20 µM.

With `CC1CCC(C(=O)N(c2cc(-c3ccc(C#N)cc3)sc2C(=O)O)C(C)C)CC1` (stereo not drawn) [Compound 576, 5-(4-CYANO-PHENYL-3-[ISOPROPYL-(4- METHYL-CYCLOHEXANECARBONYL)- AMINO]-THIOPHENE-2-CARBOXYLIC ACID], the IC50 under setting [2] is less than 5 µM.

For `Cc1ccc(C(=O)N(C)c2cc(-c3ccc(OC(F)(F)F)cc3)sc2C(=O)O)cc1` [Compound 216, 3-[METHYL-(4-METHYL-BENZOYL)-AMINO]-5-(4-TRIFLUOROMETHOXY-PHENYL)-THIOPHENE-2-CARBOXYLIC ACID], the IC50 under setting [1] was 5 to 20 µM.

As to `CC(C)N(C(=O)c1cc(F)c(Cl)cc1F)c1cc(-c2ccccc2)sc1C(=O)O` [Compound 337, 3-[(4-CHLORO-2,5-DIFLUORO-BENZOYL)- ISOPROPYL-AMINO]-5-PHENYL- THIOPHENE-2-CARBOXYLIC ACID], the IC50 under setting [1] is 5 to 20 µM.

Turning to `C=C(C)Cc1cc(N(C(=O)c2ccc(Cl)cc2Cl)C(C)C)c(C(=O)O)s1` [Compound 338, 3-[(2,4-DICHLORO-BENZOYL)- ISOPROPYL-AMINO]-5-(2-METHYL- ALLYL)-THIOPHENE- 2-CARBOXYLIC ACID], under setting [1], the IC50 is less than 5 µM.

As to `C=CCN(C(=O)Cc1ccc(F)cc1F)c1cc(-c2ccccc2)sc1C(=O)O` [Compound 351, 3-{ALLYL-[2-(2,4-DIFLUORO-PHENYL)- ACETYL]-AMINO}-5-PHENYL-THIOPHENE- 2-CARBOXYLIC ACID], under setting [1], the IC50 fell in the range of 5 to 20 µM.

Take `COc1cccc(CN(C(=O)CC(C)C)c2cc(-c3ccccc3)sc2C(=O)O)c1` [Compound 472, 3-[(3-METHOXY-BENZYL)-(3-METHYL- BUTYRYL)-AMINO]-5-PHENYL- THIOPHENE-2-CARBOXYLIC ACID]: the IC50 under setting [2] is less than 5 µM.

For the compound `O=C(O)c1sc(-c2ccccc2)cc1N(Cc1ccc(Cl)cc1)C(=O)C1CC1` [Compound 459, 3-[(4-CHLORO-BENZYL)- CYCLOPROPANECARBONYL-AMINO]-5- PHENYL-THIOPHENE-2-CARBOXYLIC ACID], the IC50 under setting [2] lay in the range of 5 to 20 µM.

Consider `O=C(O)c1sc(-c2ccccc2)cc1NS(=O)(=O)c1ccc(Cl)cc1` [Compound 18, 3-(4-CHLORO-BENZENESULFONYLAMINO)-5-PHENYL-THIOPHENE-2-CARBOXYLIC ACID], for which the IC50 under setting [1] was less than 5 µM.

In the case of `COCC(C)N(C(=O)C1CCC(C)CC1)c1cc(-c2ccccc2)sc1C(=O)O` (stereo not drawn) [Compound 578, 3-[(2-METHOXY-1-METHYL-ETHYL)-(4- METHYL-CYCLOHEXANECARBONYL)- AMINO]-5-PHENYL-THIOPHENE-2- CARBOXYLIC ACID], the IC50 under setting [2] is less than 5 µM.

For `Cc1ccccc1S(=O)(=O)Nc1cc(-c2cc(NS(=O)(=O)c3ccccc3C)c(C(=O)O)s2)sc1C(=O)O` [Compound 161, 4,4′-BIS-(TOLUENE-2-SULFONYLAMINO)-[2,2′]BITHIOPHENYL-5,5′-DICARBOXYLIC ACID], the IC50 under setting [1] is less than 5 µM.

As to `O=C(O)c1sc(-c2ccccc2)cc1NS(=O)(=O)c1cccc(Br)c1` [Compound 42, 3-(3-BROMO-BENZENESULFONYLAMINO)-5-PHENYL-THIOPHENE-2-CARBOXYLIC ACID], under setting [1], the IC50 was in the range of 5 to 20 µM.

On to `CN(C(=O)C1CCCC1)c1cc(-c2ccccc2)sc1C(=O)O` [Compound 497, 3-(CYCLOPENTANECARBONYL-METHYL- AMINO)-5-PHENYL-THIOPHENE-2- CARBOXYLIC ACID], for which the IC50 under setting [2] was less than 5 µM.

With `O=C(O)c1sc(-c2ccccc2)cc1NS(=O)(=O)c1ccccc1Cl` [Compound 29, 3-(2-CHLORO-BENZENESULFONYLAMINO)-5-PHENYL-THIOPHENE-2-CARBOXYLIC ACID], under setting [1], the IC50 fell in the range of 5 to 20 µM.

For the compound `Cc1cc(S(=O)(=O)N(Cc2cccc(I)c2)c2cc(-c3ccccc3)sc2C(=O)O)c(C)cc1Cl` [Compound 1, 3-[(4-CHLORO-2,5-DIMETHYL-BENZENESULFONYL)-(3-IODO-BENZYL)-AMINO]-5-PHENYL-THIOPHENE-2-CARBOXYLIC ACID], the IC50 under setting [1] fell in the range of 5 to 20 µM.

With `CN(C(=O)c1ccc(Cl)cc1Br)c1cc(-c2ccccc2)sc1C(=O)O` [Compound 284, 3-[(2-BROMO-4-CHLORO-BENZOYL)-METHYL-AMINO]-5-PHENYL-THIOPHENE-2-CARBOXYLIC ACID], under setting [1], the IC50 was less than 5 µM.

As for `CC(C)N(C(=O)C1=CC[C@@H](C)CC1)c1cc(-c2ccccc2)sc1C(=O)O` [Compound 562, 3-[(4S)-ISOPROPYL-(4-METHYL- CYCLOHEX-1-ENECARBONYL)-AMINO]-5- PHENYL-THIOPHENE-2-CARBOXYLIC ACID], the half-maximal inhibitory concentration (IC50) under setting [2] was less than 5 µM.
